In patent US10016519B2, “18F-tagged inhibitors of prostate specific membrane antigen (PSMA), their use as imaging agents and pharmaceutical agents for the treatment of prostate cancer” (DEUTSCHES KREBSFORSCHUNGSZENTRUM, priority 2014, dated 2018):

Experiments:
LNCaP cells = assay: Specific cell uptake and internalization; format: cell-based, human; details: for Internalized fraction: (Internalized activity/total activity)*100, LNCaP cells; for Cell surface / Internalised: LNCaP cells, 30 nM 18F-labeled compound, 45 min, 37° C., specific (blocking with 500 μM PMPA), mean±SD n=3
Method: FIG. 8: Internalization of compounds PSMA1001/1002/1003. All compounds were labeled with ^18F, and their specific cell surface binding and internalization properties on LNCaP cells were investigated. Specific cell uptake was determined by blocking with 500 μM-PMPA. Values are expressed as % of applied radioactivity bound to 10^5 cells. Data are expressed as mean±SD (n=3).
(§1) For binding studies and in vivo experiments LNCaP cells (metastatic lesion of human prostatic adenocarcinoma, ATCC CRL-1740) were cultured in RPMI medium supplemented with 10% fetal calf serum and Glutamax (PAA, Austria). During cell culture, cells were grown at 37° C. in an incubator with humidified air, equilibrated with 5% CO2. The cells were harvested using trypsin-ethylenediaminetetraacetic acid (trypsin-EDTA; 0.25% trypsin, 0.02% EDTA, all from PAA, Austria) and washed with PBS.
To determine the specific cell uptake and internalization, 10^5 cells were seeded in poly-L-lysine coated 24-well cell culture plates 24 h before incubation. After washing, the cells were incubated with 30 nM of the radiolabeled compounds for 45 min at 37° C. Specific cellular uptake was determined by competitive blocking with 2-(phosphonomethyl)pentanedioic acid (500 μM final concentration, PMPA, Axxora, Loerrach, Germany). Cellular uptake was terminated by washing 3 times with 1 mL of ice-cold PBS. Cells were subsequently incubated twice with 0.5 mL glycine-HCl in PBS (50 mM, pH=2.8) for 5 min to remove the surface-bound fraction. The cells were washed with 1 mL of ice-cold PBS and lysed using 0.3 N NaOH (0.5 mL). The surface-bound and the internalized fractions were measured in a gamma counter. The cell uptake was calculated as percent of the initially added radioactivity bound to 10^5 cells [% ID/10^5 cells].

PSMA = target: T1, PSMA (Homo sapiens, UniProt Q04609); assay: Competitive cell binding assay (binding affinity); details: LNCaP cells, competition against 68Ga-labeled [Glu-urea-lys(Ahx)]2-HBED-CC radioligand, 0-5000 nM analyte
T1 construct: host or cells: LNCaP
T1 sequence (Q04609 whole entry): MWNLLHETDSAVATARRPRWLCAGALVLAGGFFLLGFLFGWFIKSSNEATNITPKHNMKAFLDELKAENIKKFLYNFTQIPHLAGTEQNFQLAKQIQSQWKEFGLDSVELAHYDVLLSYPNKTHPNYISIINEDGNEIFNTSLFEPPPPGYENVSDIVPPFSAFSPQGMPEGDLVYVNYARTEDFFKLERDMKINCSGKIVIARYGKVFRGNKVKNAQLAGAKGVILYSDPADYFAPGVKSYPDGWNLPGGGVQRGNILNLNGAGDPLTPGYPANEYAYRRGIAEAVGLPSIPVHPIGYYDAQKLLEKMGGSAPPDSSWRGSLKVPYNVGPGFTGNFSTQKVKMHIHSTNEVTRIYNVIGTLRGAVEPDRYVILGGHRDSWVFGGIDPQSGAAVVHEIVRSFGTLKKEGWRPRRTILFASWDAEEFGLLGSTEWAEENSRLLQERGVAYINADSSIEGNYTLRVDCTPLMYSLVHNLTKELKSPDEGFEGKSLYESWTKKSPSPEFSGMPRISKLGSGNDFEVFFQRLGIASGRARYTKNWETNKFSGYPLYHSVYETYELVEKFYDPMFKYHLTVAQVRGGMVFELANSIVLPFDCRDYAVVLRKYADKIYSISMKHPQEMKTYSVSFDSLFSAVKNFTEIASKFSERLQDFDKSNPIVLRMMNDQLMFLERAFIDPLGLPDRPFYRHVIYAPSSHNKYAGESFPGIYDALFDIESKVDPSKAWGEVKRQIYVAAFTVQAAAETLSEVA
Method: as §1
The competitive cell binding assay and internalization experiments were performed as described previously (Eder, M. et al., Bioconj. Chem 2012, 23, 688-697) Briefly, the respective cells (10^5 per well) were incubated with the radioligand (^68Ga-labeled [Glu-urea-lys(Ahx)]2-HBED-CC (Schafer, M. et al., EJNMMI Res. 2012; 2, 23) in the presence of 12 different concentrations of analyte (0-5000 nM, 100 μL/well). After incubation, washing was carried out using a multiscreen vacuum manifold (Millipore, Billerica, Mass.). Cell-bound radioactivity was measured using a gamma counter (Packard Cobra II, GMI, Minnesota, USA). The 50% inhibitory concentration (IC^50) was calculated by fitting the data using a nonlinear regression algorithm (GraphPad Software).
Experiments were performed three times. Reference is made to Table A below.

[1] = test system: mice bearing LNCaP tumor xenografts; assay: Dynamic microPET imaging; format: in vivo
Method: FIG. 9: PET imaging of PSMA-1001. Whole-body coronal microPET images of an athymic male nude mice bearing LNCaP tumor xenografts. The tumor-targeting efficacy and pharmacokinetic properties of ^18F-PSMA-1001 were evaluated by dynamic microPET scans. Approximately 15 MBq/mouse were injected. […] The values are expressed as mean SUV (standardized uptake values).
Whole-body coronal microPET images of an athymic male nude mice bearing LNCaP tumor xenografts. […] Approximately 15 MBq/mouse were injected. […] The values are expressed as mean SUV (standardized uptake values).
(§2) For in vivo experiments, 8 week old BALB/c nu/nu mice were subcutaneously inoculated into the right trunk with 5×10^6 LNCaP- or PC3-cells in 50% Matrigel. When the size of tumor was approximately 1 cm^3, the radiolabeled compound was injected via the tail vein (ca. 30 MBq, 60 pmol for μPET imaging; ca. 1 MBq, 60 pmol for organ distribution).
For the microPET studies, 10-25 MBq of the radiolabeled compounds in a volume of 0.15 mL (˜60 pmol) were injected via a lateral tail vein into mice bearing LNCaP tumor xenografts. The anesthetized animals (2% sevoflurane, Abbott, Wiesbaden, Germany) were placed in prone position into the Inveon small animal PET scanner (Siemens, Knoxville, Tenn., USA) to perform dynamic microPET scans and 20 min-static scans.

[2] = test system: BALB/c nu/nu mice bearing LNCaP tumor; assay: Organ distribution; format: in vivo; details: 1 h after injection, tail vein, 60 pmol, n=3
Method: as §2
The F-18 labeled compounds were injected via tail vein (1-2 MBq per mouse; 60 pmol). At 1 h after injection, the animals were sacrificed. Organs of interest were dissected, blotted dry, and weighed. The radioactivity was measured with a gamma counter (Packard Cobra II, GMI, Minnesota, USA) and calculated as % ID/g.

Organ distribution, Blood, Mean [2]	Organ distribution, Brain, Mean [2]	Organ distribution, Heart, Mean [2]	Organ distribution, Kidney, Mean [2]	Organ distribution, LNCaP Tumor, Mean [2]	Organ distribution, Liver, Mean [2]	Organ distribution, Lung, Mean [2]	Organ distribution, Muscle, Mean [2]	Organ distribution, Small intestine, Mean [2]	Organ distribution, Spleen, Mean [2]	Molecule	Internalized fraction (LNCaP cells)	Cell surface (LNCaP cells)	Internalised (LNCaP cells)	IC50 (PSMA)	Tumor standardized uptake value (SUVmean,BW) ([1]; LNCaP tumor xenograft, time not stated)	Uptake in the kidneys (microPET) ([1]; LNCaP xenograft mice)	Uptake in the liver (microPET) ([1]; LNCaP xenograft mice)
–	–	–	–	–	–	–	–	–	–	O=C(O)CC[C@H](NC(=O)N[C@@H](CCCCNC(=O)[C@H](Cc1ccc2ccccc2c1)NC(=O)[C@H]1CC[C@H](CNC(=O)c2ccc([18F])nc2)CC1)C(=O)O)C(=O)O [PSMA-1001, (Glu)-(Urea)-((D)-Lys)-(2-Naphthylalanine)-(4-(Aminomethyl)cyclohexanecarboxylic acid)-FN]	26%	8.4 ± 1.9 % ID/10^5 cells	2.9 ± 0.3 % ID/10^5 cells	3 nM	0.5	increasing uptake in the kidneys	high uptake in the liver
2.02 % ID/g	0.07 % ID/g	0.25 % ID/g	32.37 % ID/g	3.4 % ID/g	3.02 % ID/g	0.65 % ID/g	0.25 % ID/g	8.49 % ID/g	1.96 % ID/g	O=C(O)CC[C@H](NC(=O)N[C@@H](CCCCNC(=O)[C@H](Cc1ccc2ccccc2c1)NC(=O)c1ccc(CNC(=O)c2ccc([18F])nc2)cc1)C(=O)O)C(=O)O [PSMA-1003, (Glu)-(Urea)-((D)-Lys)-(2-Naphthylalanine)-(4-(Aminomethyl)benzoic acid)-FN]	–	–	–	–	–	–	–
–	–	–	–	–	–	–	–	–	–	O=C(O)CCC(NC(=O)NC(CCCCNC(=O)C(Cc1ccc2ccccc2c1)NC(=O)c1ccc(CNC(=O)CO/N=C\C([18F])C(O)C(O)C(O)CO)cc1)C(=O)O)C(=O)O (stereo not shown) [PSMA-1005, (Glu)-(Urea)-(Lys)-(2Nal)-(Bn)-(Acetyl-FDG-Oxim)]	63%	1.1 ± 0.5 % ID/10^5 cells	0.7 ± 0.4 % ID/10^5 cells	7 nM	–	–	–
–	–	–	–	–	–	–	–	–	–	(Glu)-(Urea)-((D)-Lys)-(2-Naphthylalanine)-(4-(Aminomethyl)benzoic acid)-FN [PSMA-1003]	38%	11.7 ± 1.2 % ID/10^5 cells	7.1 ± 0.8 % ID/10^5 cells	3 nM	–	–	–
